Format in all cases: cell-based
What all share (parameters): expressed in transfected cells; host or cells: HEK293 cells transfected with VIPR2 in pCDNA3.1 (as described)

Assay [1] addresses T1, VIPR2 (Homo sapiens, UniProt P41587).
T1 sequence (P41587 24-438): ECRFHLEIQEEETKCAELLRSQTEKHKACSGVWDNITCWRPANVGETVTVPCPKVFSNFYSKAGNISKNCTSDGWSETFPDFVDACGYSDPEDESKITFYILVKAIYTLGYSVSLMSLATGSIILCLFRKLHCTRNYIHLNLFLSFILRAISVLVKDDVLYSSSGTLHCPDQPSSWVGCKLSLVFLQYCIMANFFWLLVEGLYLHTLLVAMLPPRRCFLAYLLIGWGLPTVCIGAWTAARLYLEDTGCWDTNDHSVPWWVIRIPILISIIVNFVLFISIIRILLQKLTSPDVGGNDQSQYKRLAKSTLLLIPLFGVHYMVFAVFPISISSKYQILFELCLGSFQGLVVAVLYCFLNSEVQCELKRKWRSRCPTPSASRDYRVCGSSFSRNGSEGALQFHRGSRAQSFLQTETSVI
Briefly: Inhibition of VIP-induced β-arrestin recruitment (% Activity Arrestin). The text has this:
(§1) In a further non-limiting embodiment of the invention, the ability of a compound to inhibit VIPR2 GPCR activity may be tested, for example, using the PathHunter® eXpress β-Arrestin GPCR system (Discoverx Corporation, Fremont, Calif., US), as used by Chu et al., 2010, Molecular Pharmacol. 7795-101. In this assay, β-Arrestin is fused to the “Enzyme Acceptor” (“EA”), an N-terminal deletion mutant of β-gal, and the GPCR of interest is fused to a smaller (42 amino acids), weakly complementing portion of the β-gal enzyme (termed “ProLink™”). In cells that stably express these fusion proteins, the interaction of β-Arrestin and the GPCR following ligand stimulation forces the complementation of the two β-gal fragments resulting in the formation of a functional enzyme that converts substrate to detectable signal. In the absence of an interaction between the GPCR and β-Arrestin, the enzyme activity is low due to the low affinity of the two enzyme fragments. For example, a nucleic acid encoding VIPR2, for example hVIPR2, may be cloned into the ProLink vector (DiscoveRx) for GPCR-ProLink fusion protein production. Parental HEK293 cells that stably express β-arrestin2-β-gal-EA fusion protein (DiscoveRx) may be detached and transiently transfected with the VIPR2-containing vector using Fugene6 transfection reagent in suspension mode. Transfected cells in assay medium may be plated into test plates, for example at 15,000 cells/25 μl/well. After overnight incubation, 500 nl of an inhibitor or test inhibitor may be introduced into the test plate followed by 2 h incubation at 37° C., 5% CO2. Flash detection reagents may be added at 12.5 μl/well. After 5 min to 1 h of room-temperature incubation, the cell plates may be read on CLIPR (PerkinElmer Life and Analytical Sciences)or Acquest (Molecular Devices, Sunnyvale, Calif.) for luminescence signal.
(§2) A series of compounds were prepared using a synthetic method analogous to that set forth in Scheme 1, above, and then tested for their ability to inhibit VIP-induced cAMP elevation and β-arrestin recruitment.
(§3) A series of compounds were prepared using a synthetic method analogous to that set forth in Scheme 1, above, and then tested for their ability to inhibit VIP-induced cAMP elevation and β-arrestin recruitment, as described herein (Discoverx Corporation, Fremont, Calif., US). Compound activities were also tested in a BRET-based assay, as described herein. The results are shown below in Tables 1-4, above.
For orientation: Recruitment of arrestin is a read-out of receptor activation apart from second messengers.

Assay [2] has as its target T1, VIPR2. The assay is described as follows: % Activity: inhibition of VIP-induced cAMP elevation and β-arrestin recruitment (Table 2).
Source text: (§4) In a further non-limiting embodiment of the invention, the ability of a compound to inhibit VIPR2 and thereby […] a VIP-induced increase in cAMP may be measured using a Homogeneous Time-Resolved Fluorescence (“HTRF® assay; Cisbio Bioassays) as used in Chu et al., 2010, Molecular Pharmacol. 7795-101. In a method as used in Chu et al., 2010, Molecular Pharmacol. 7795-101, HEK293 cells may be transfected with nucleic acid encoding VIPR2, for example human VIPR2 (“hVIPR2”), for example comprised in a vector such as pCDNA3.1 vector. Successful transformants may then be selected, for example using 800 μg/ml G418. Clonal stable cell lines may then be generated by limited dilution to single cells and then may be clonally expanded and tested for VIP -dependent cAMP response. For the cAMP assay, about 3000-15,000 cells (in about 4-25 μl) may be placed in a well of an assay plate. The next day, inhibitor or test inhibitor and VIP may be added in a volume about 1-2 percent of the initial volume. Assay plates may then be returned to a cell incubator for 30 min before addition of a one-half volume of cAMP conjugate and, relative to the amount of cAMP conjugate, an equal volume of anti-cAMP conjugate (Cisbio). After at least 1 h of room-temperature incubation, HTRF signal may be read, for example using Viewlux or EnVision (PerkinElmer Life and Analytical Sciences, Waltham, Mass.). The ratio of […] at 665 nm and 620 nm times 10,000 may be calculated and plotted.
as §1, §3

Assay [3] addresses T1, VIPR2. Briefly: Inhibition of VIP-induced cAMP elevation (% Activity cAMP).
Source text: as §4, §2, §3

This note sets out measurements from US20150239831A1, “INHIBITORS OF CENTRAL NERVOUS SYSTEM VASOACTIVE INHIBITORY PEPTIDE RECEPTOR 2” (The Trustees Of Columbia University In The City Of New York, priority 2012, published 2015).

As a reminder, the inhibition is the relative decrease from the control value, in per cent.

On to `CC(C)(C)c1ccc(C(=O)NC[C@@H](O)C[C@@H](Cc2ccccc2)C(=O)N[C@H]2c3ccccc3C[C@H]2O)cc1` [Compound A26], for which, in assay [1] (Batch 1), the inhibition at 0.5 µM was 16.2%, the inhibition at 1 µM is 11.3% and the inhibition at 5 µM is 7.8%. For the same compound, in assay [2], the “% Activity” value came to 15.5%. Besides, in assay [3] (Batch 1), the inhibition at 0.5 µM came to 10.7%, the inhibition at 1 µM was 16% and the inhibition at 5 µM worked out at 23.2%.

For the compound `NC[C@@H](O)C[C@@H](Cc1ccccc1)C(=O)N[C@H]1c2ccccc2C[C@H]1O` [Compound A28], in assay [1] (Batch 1), the inhibition at 0.5 µM amounted to 3.7%, the inhibition at 1 µM was 1.4% and the inhibition at 5 µM came out at 19.7%. Moreover, the “% Activity” value in assay [2] was 17.45%. In assay [3] (Batch 1), the inhibition at 0.5 µM is 11.8%, the inhibition at 1 µM came out at 15.9% and the inhibition at 5 µM came to 15.2%.

As to `O=C(NC1CCCC1)[C@H](Cc1ccccc1)C[C@H](O)CNS(=O)(=O)c1ccc([N+](=O)[O-])cc1` [Compound B1A], in assay [1] (Batch 2), the inhibition at 0.5 µM was 17.4%, the inhibition at 1 µM was 17.1% and the inhibition at 5 µM stood at 9.2%. Besides, the “% Activity” value in assay [2] came out at 6.95%. Besides, in assay [3] (Batch 2), the inhibition at 0.5 µM is -2.1%, the inhibition at 1 µM is -4.9% and the inhibition at 5 µM came to 4.7%.

Regarding `O=C(NC1CCCC1)[C@@H](Cc1ccccc1)C[C@H](O)CNS(=O)(=O)c1ccc([N+](=O)[O-])cc1` [Compound B1B], in assay [1] (Batch 2), the inhibition at 0.5 µM was -5.7%, the inhibition at 1 µM is -6.1% and the inhibition at 5 µM amounted to 1.3%. For the same compound, the “% Activity” value in assay [2] is recorded as 0.5%. In assay [3] (Batch 2), the inhibition at 0.5 µM is -7.5%, the inhibition at 1 µM was -2.5% and the inhibition at 5 µM was -0.3%.

Consider `O=C(NC1Cc2ccccc2C1)[C@H](Cc1ccccc1)C[C@H](O)CNS(=O)(=O)c1ccc([N+](=O)[O-])cc1` [Compound B2A], for which, in assay [1] (Batch 2), the inhibition at 0.5 µM is -2.7%, the inhibition at 1 µM turned out to be 8.1% and the inhibition at 5 µM came out at 9.8%. Further, the “% Activity” value in assay [2] is on record as 12.9%. Besides, in assay [3] (Batch 2), the inhibition at 0.5 µM amounted to 5.7%, the inhibition at 1 µM was 7.5% and the inhibition at 5 µM turned out to be 16%.

For the compound `O=C(NCc1ccccc1)[C@H](Cc1ccccc1)C[C@H](O)CNS(=O)(=O)c1ccc([N+](=O)[O-])cc1` [Compound B3A], in assay [1] (Batch 2), the inhibition at 0.5 µM turned out to be 1.8%, the inhibition at 1 µM came out at 4.4% and the inhibition at 5 µM amounted to 24.2%. For the same compound, in assay [2], the “% Activity” value is 10.65%. Further, in assay [3] (Batch 2), the inhibition at 0.5 µM is -1.1%, the inhibition at 1 µM was -1.3% and the inhibition at 5 µM was -2.9%.

Consider `O=C(NCc1ccccc1)[C@@H](Cc1ccccc1)C[C@H](O)CNS(=O)(=O)c1ccc([N+](=O)[O-])cc1` [Compound B3B], for which, in assay [1] (Batch 2), the inhibition at 0.5 µM is -0.3%, the inhibition at 1 µM was -4.1% and the inhibition at 5 µM came out at 7.2%. Also, the “% Activity” value in assay [2] came to 6.05%. Besides, in assay [3] (Batch 2), the inhibition at 0.5 µM was -1%, the inhibition at 1 µM came out at 1.5% and the inhibition at 5 µM worked out at 4.9%.

For the compound `O=C(NC1CCCCCC1)[C@H](Cc1ccccc1)C[C@H](O)CNS(=O)(=O)c1ccc([N+](=O)[O-])cc1` [Compound B5A], in assay [1] (Batch 2), the inhibition at 0.5 µM was -19.2%, the inhibition at 1 µM was -5.4% and the inhibition at 5 µM was -2.4%. In assay [2], the “% Activity” value turned out to be 5.25%. Moreover, in assay [3] (Batch 2), the inhibition at 0.5 µM worked out at 1.7%, the inhibition at 1 µM came to 5.6% and the inhibition at 5 µM worked out at 12.9%.

As to `O=C(NC1CCCCCC1)[C@@H](Cc1ccccc1)C[C@H](O)CNS(=O)(=O)c1ccc([N+](=O)[O-])cc1` [Compound B5B], in assay [1] (Batch 2), the inhibition at 0.5 µM was -4%, the inhibition at 1 µM amounted to 3.6% and the inhibition at 5 µM came to 6.8%. Moreover, in assay [2], the “% Activity” value worked out at 10.55%. For the same compound, in assay [3] (Batch 2), the inhibition at 0.5 µM stood at 15.5%, the inhibition at 1 µM was 10.6% and the inhibition at 5 µM turned out to be 14.3%.

On to `O=C(NN1CCCCC1)[C@H](Cc1ccccc1)C[C@H](O)CNS(=O)(=O)c1ccc([N+](=O)[O-])cc1` [Compound B6A], for which, in assay [1] (Batch 2), the inhibition at 0.5 µM is -6.4%, the inhibition at 1 µM is 4.4% and the inhibition at 5 µM is 6.5%. Besides, the “% Activity” value in assay [2] was determined as 5.45%. Besides, in assay [3] (Batch 2), the inhibition at 0.5 µM was 6.3%, the inhibition at 1 µM was 7.1% and the inhibition at 5 µM came to 4.4%.

`O=C(NN1CCCCC1)[C@@H](Cc1ccccc1)C[C@H](O)CNS(=O)(=O)c1ccc([N+](=O)[O-])cc1` [Compound B6B]: in assay [1] (Batch 2), the inhibition at 0.5 µM is -0.9%, the inhibition at 1 µM turned out to be 3.3% and the inhibition at 5 µM was found to be 4.7%. Further, in assay [2], the “% Activity” value amounted to 5.35%. Further, in assay [3] (Batch 2), the inhibition at 0.5 µM is 9.2%, the inhibition at 1 µM was 12.3% and the inhibition at 5 µM was 6%.

Take `CCCCNC(=O)[C@H](Cc1ccccc1)C[C@H](O)CNS(=O)(=O)c1ccc([N+](=O)[O-])cc1` [Compound B7A]: in assay [1] (Batch 2), the inhibition at 0.5 µM is -5.6%, the inhibition at 1 µM was determined as 1.9% and the inhibition at 5 µM worked out at 13.8%. Besides, the “% Activity” value in assay [2] came to 9.55%. For the same compound, in assay [3] (Batch 2), the inhibition at 0.5 µM came out at 0.9%, the inhibition at 1 µM came out at 5.1% and the inhibition at 5 µM was 5.3%.

On to `CCCCNC(=O)[C@@H](Cc1ccccc1)C[C@H](O)CNS(=O)(=O)c1ccc([N+](=O)[O-])cc1` [Compound B7B], for which, in assay [1] (Batch 2), the inhibition at 0.5 µM was 26.8%, the inhibition at 1 µM was 20.4% and the inhibition at 5 µM was found to be 20.7%. Further, the “% Activity” value in assay [2] turned out to be 13.45%. Also, in assay [3] (Batch 2), the inhibition at 0.5 µM was -1.5%, the inhibition at 1 µM amounted to 0.6% and the inhibition at 5 µM was found to be 6.2%.

As for `CC1CCC(NC(=O)[C@H](Cc2ccccc2)C[C@H](O)CNS(=O)(=O)c2ccc([N+](=O)[O-])cc2)CC1` (some centres unmarked) [Compound B8A], in assay [1] (Batch 2), the inhibition at 0.5 µM was 13.4%, the inhibition at 1 µM was -1.3% and the inhibition at 5 µM stood at 0.4%. The “% Activity” value in assay [2] is on record as −1.2%. In assay [3] (Batch 2), the inhibition at 0.5 µM was -5%, the inhibition at 1 µM was -2.5% and the inhibition at 5 µM is -2.8%.
